The subject of this assay is MV-4-11 cells. As to the kind of experiment: Gene expression microarray analysis (Affymetrix PrimeView) and GSEA. Type of assay: cell-based, human. As to conditions: MV-4-11 cells, 48 hours. Set-up: RFU PODN (11730768_x_at) / Fold change /veh PODN (11730768_x_at) / RFU LINC00158 (11744669_a_at) / Fold change /veh LINC00158 (11744669_a_at) / RFU DUSP10 (11751237_a_at) / Fold change /veh DUSP10 (11751237_a_at) / RFU ID3 (11757404_x_at) / Fold change /veh ID3 (11757404_x_at) / RFU PLEKHG5 (11737974_s_at) / Fold change /veh PLEKHG5 (11737974_s_at) / RFU LRRC4B (11730491_at) / Fold change /veh LRRC4B (11730491_at) / RFU GIMAP4 (11747438_a_at) / Fold change /veh GIMAP4 (11747438_a_at) / RFU KRT8 (11758183_x_at) / Fold change /veh KRT8 (11758183_x_at) / RFU CNN1 (11734310_a_at) / Fold change /veh CNN1 (11734310_a_at) / RFU VPS37D (11726825_at) / Fold change /veh VPS37D (11726825_at) / RFU C10orf10 (11716522_x_at) / Fold change /veh C10orf10 (11716522_x_at) / RFU KIR2DL2 /// KIR2DL4 /// KIR2DL5A /// KIR2DL5B /// KIR2DS1 /// KIR2DS2 /// KIR2DS3 /// KIR2DS4 /// KIR3DL3 /// KIR3DL3 /// KIR3DS1 (11738374_at) / Fold change /veh KIR2DL2 /// KIR2DL4 /// KIR2DL5A /// KIR2DL5B /// KIR2DS1 /// KIR2DS2 /// KIR2DS3 /// KIR2DS4 /// KIR3DL3 /// KIR3DL3 /// KIR3DS1 (11738374_at) / RFU C1QL1 (11718748_at) / Fold change /veh C1QL1 (11718748_at) / RFU TMPRSS4 (11747572_a_at) / Fold change /veh TMPRSS4 (11747572_a_at) / RFU HAMP (11756126_x_at) / Fold change /veh HAMP (11756126_x_at) / RFU RNFT2 (11725882_a_at) / Fold change /veh RNFT2 (11725882_a_at) / RFU NR4A2 (11747474_a_at) / Fold change /veh NR4A2 (11747474_a_at) / RFU ABCC12 (11746883_a_at) / Fold change /veh ABCC12 (11746883_a_at) / RFU TMEM136 (11760407_x_at) / Fold change /veh TMEM136 (11760407_x_at) / RFU CLDN22 /// WWC2 (11732394_at) / Fold change /veh CLDN22 /// WWC2 (11732394_at) / RFU HLA-DPB1 (11760878_x_at) / Fold change /veh HLA-DPB1 (11760878_x_at) / RFU SPINT1 (11716480_a_at) / Fold change /veh SPINT1 (11716480_a_at) / RFU GAP43 (11754022_s_at) / Fold change /veh GAP43 (11754022_s_at) / RFU A4GNT (11735810_at) / Fold change /veh A4GNT (11735810_at) / RFU PRB3 (11715151_x_at) / Fold change /veh PRB3 (11715151_x_at) / RFU TUBB4B (11761932_at) / Fold change /veh TUBB4B (11761932_at) / RFU CAPN14 (11732068_a_at) / Fold change /veh CAPN14 (11732068_a_at) / RFU TMCC2 (11721928_a_at) / Fold change /veh TMCC2 (11721928_a_at) / RFU IRGQ (11745062_a_at) / Fold change /veh IRGQ (11745062_a_at) / RFU FAM174B (11720279_a_at) / Fold change /veh FAM174B (11720279_a_at) / RFU TMPRSS4 (11748680_a_at) / Fold change /veh TMPRSS4 (11748680_a_at) / RFU FAM212B (11763350_a_at) / Fold change /veh FAM212B (11763350_a_at) / RFU PLEKHG5 (11743358_a_at) / Fold change /veh PLEKHG5 (11743358_a_at) / RFU ZSCAN30 (11745921_a_at) / Fold change /veh ZSCAN30 (11745921_a_at) / RFU CMKLR1 (11741424_a_at) / Fold change /veh CMKLR1 (11741424_a_at) / RFU LOC101060620 /// MAPK8IP1 (11723275_at) / Fold change /veh LOC101060620 /// MAPK8IP1 (11723275_at) / RFU SPTSSB (11747773_x_at) / Fold change /veh SPTSSB (11747773_x_at) / RFU PRSS12 (11739890_at) / Fold change /veh PRSS12 (11739890_at) / RFU BIN1 (11741810_x_at) / Fold change /veh BIN1 (11741810_x_at) / RFU WNT11 (11732464_a_at) / Fold change /veh WNT11 (11732464_a_at) / RFU C10orf10 (11716521_a_at) / Fold change /veh C10orf10 (11716521_a_at) / RFU C5orf56 (11738089_at) / Fold change /veh C5orf56 (11738089_at) / RFU CYB561 (11721691_x_at) / Fold change /veh CYB561 (11721691_x_at) / RFU ANKRD19P (11752326_a_at) / Fold change /veh ANKRD19P (11752326_a_at) / RFU OR2T12 /// OR2T33 /// OR2T8 (11738714_s_at) / Fold change /veh OR2T12 /// OR2T33 /// OR2T8 (11738714_s_at) / RFU VCAN (11748164_a_at) / Fold change /veh VCAN (11748164_a_at) / RFU JSRP1 (11732532_at) / Fold change /veh JSRP1 (11732532_at) / RFU KRTAP10-11 (11738290_x_at) / Fold change /veh KRTAP10-11 (11738290_x_at) / RFU MYO3A (11730013_a_at) / Fold change /veh MYO3A (11730013_a_at) / RFU EBF3 (11725865_a_at) / Fold change /veh EBF3 (11725865_a_at) / RFU CAMK2N1 (11719241_x_at) / Fold change /veh CAMK2N1 (11719241_x_at) / RFU C5orf56 (11738088_a_at) / Fold change /veh C5orf56 (11738088_a_at) / RFU OLFML3 (11715873_a_at) / Fold change /veh OLFML3 (11715873_a_at) / RFU LOC100653217 /// NTM (11731650_a_at) / Fold change /veh LOC100653217 /// NTM (11731650_a_at) / RFU MAPK11 (11762145_a_at) / Fold change /veh MAPK11 (11762145_a_at) / RFU FIZ1 (11724087_x_at) / Fold change /veh FIZ1 (11724087_x_at) / RFU OASL (11726364_x_at) / Fold change /veh OASL (11726364_x_at) / RFU SOX15 (11748057_x_at) / Fold change /veh SOX15 (11748057_x_at) / RFU CD79A (11719716_a_at) / Fold change /veh CD79A (11719716_a_at) / RFU HIST1H1D (11736915_at) / Fold change /veh HIST1H1D (11736915_at) / RFU CASKIN2 (11723855_a_at) / Fold change /veh CASKIN2 (11723855_a_at) / RFU LOC730098 (11760151_x_at) / Fold change /veh LOC730098 (11760151_x_at) / RFU OR4N2 (11742367_at) / Fold change /veh OR4N2 (11742367_at) / RFU PRRT2 (11749266_a_at) / Fold change /veh PRRT2 (11749266_a_at) / RFU SNX32 (11753110_a_at) / Fold change /veh SNX32 (11753110_a_at) / RFU CDHR5 (11726645_a_at) / Fold change /veh CDHR5 (11726645_a_at) / RFU RCAN1 (11760418_a_at) / Fold change /veh RCAN1 (11760418_a_at) / RFU FAM167A (11723789_a_at) / Fold change /veh FAM167A (11723789_a_at) / RFU FAM26E (11764081_at) / Fold change /veh FAM26E (11764081_at) / RFU ISYNA1 (11749810_s_at) / Fold change /veh ISYNA1 (11749810_s_at) / RFU ACY1 (11761880_at) / Fold change /veh ACY1 (11761880_at) / RFU 11764098_at / Fold change /veh 11764098_at / RFU SAMD14 (11745864_x_at) / Fold change /veh SAMD14 (11745864_x_at) / RFU NPB (11741838_a_at) / Fold change /veh NPB (11741838_a_at) / RFU TMPRSS6 (11731388_a_at) / Fold change /veh TMPRSS6 (11731388_a_at) / RFU KRTAP10-2 (11738614_at) / Fold change /veh KRTAP10-2 (11738614_at) / RFU ARHGAP8 /// PRR5-ARHGAP8 (11727945_x_at) / Fold change /veh ARHGAP8 /// PRR5-ARHGAP8 (11727945_x_at) / RFU KRTAP5-7 /// NADSYN1 (11734609_at) / Fold change /veh KRTAP5-7 /// NADSYN1 (11734609_at) / RFU RASL12 (11751679_a_at) / Fold change /veh RASL12 (11751679_a_at) / RFU CDKN2B (11736163_a_at) / Fold change /veh CDKN2B (11736163_a_at) / RFU PRF1 (11729649_at) / Fold change /veh PRF1 (11729649_at) / RFU, ZNF638 /// ZNF638-IT1 / Fold change vs veh, ZNF638 /// ZNF638-IT1 / RFU, PANK3 / Fold change vs veh, PANK3 / RFU, SH3YL1 / Fold change vs veh, SH3YL1 / RFU, ZEB2 / Fold change vs veh, ZEB2 / RFU, NRIP1 / Fold change vs veh, NRIP1 / RFU, PTTG1IP / Fold change vs veh, PTTG1IP / RFU, CAPN2 / Fold change vs veh, CAPN2 / RFU, MED14 / Fold change vs veh, MED14 / RFU, SNORA58 / Fold change vs veh, SNORA58 / RFU, C1orf63 / Fold change vs veh, C1orf63 / RFU, LRRFIP1 / Fold change vs veh, LRRFIP1 / RFU, NDUFAF7 / Fold change vs veh, NDUFAF7 / RFU, SLC12A2 / Fold change vs veh, SLC12A2 / RFU, IBTK / Fold change vs veh, IBTK / RFU, ESF1 / Fold change vs veh, ESF1 / Fold change vs veh, TMEM50B / RFU, TAOK1 / Fold change vs veh, TAOK1 / RFU, ACBD3 / Fold change vs veh, ACBD3 / RFU, TMA16 / Fold change vs veh, TMA16 / RFU, RWDD3 / Fold change vs veh, RWDD3 / RFU, BCAT1 / Fold change vs veh, BCAT1 / RFU, EDEM3 / Fold change vs veh, EDEM3 / RFU, TMEM33 / Fold change vs veh, TMEM33 / RFU, WDR75 / Fold change vs veh, WDR75 / RFU, AHCTF1 / Fold change vs veh, AHCTF1 / RFU, TFRC / Fold change vs veh, TFRC / RFU, ZDHHC17 / Fold change vs veh, ZDHHC17 / RFU, NOM1 / Fold change vs veh, NOM1 / RFU, ARL8B / Fold change vs veh, ARL8B / RFU, ZBTB11 / Fold change vs veh, ZBTB11 / RFU, TAMM41 / Fold change vs veh, TAMM41 / RFU, KIAA1704 /// LOC100996395 / Fold change vs veh, KIAA1704 /// LOC100996395 / RFU, ING1 / Fold change vs veh, ING1 / RFU, TRMT61B / Fold change vs veh, TRMT61B / RFU, FUBP3 / Fold change vs veh, FUBP3 / RFU, TP53 / Fold change vs veh, TP53 / RFU, TNKS2 / Fold change vs veh, TNKS2 / RFU, ZFP14 / Fold change vs veh, ZFP14 / RFU, ACTR2 / Fold change vs veh, ACTR2 / RFU, PPP3R1 / Fold change vs veh, PPP3R1 / RFU, PIK3R1 / Fold change vs veh, PIK3R1 / RFU, HNRNPA1 / Fold change vs veh, HNRNPA1 / RFU, RNF170 / Fold change vs veh, RNF170 / RFU, ZNF28 / Fold change vs veh, ZNF28 / RFU, RNGTT / Fold change vs veh, RNGTT / RFU, OGT / Fold change vs veh, OGT / RFU, BRD1 / Fold change vs veh, BRD1 / RFU, MARS / Fold change vs veh, MARS / RFU, ZNF655 / Fold change vs veh, ZNF655 / RFU, FAHD1 / Fold change vs veh, FAHD1 / RFU, BDP1 / Fold change vs veh, BDP1 / RFU, LRRCC1 / Fold change vs veh, LRRCC1 / RFU, ARID1A / Fold change vs veh, ARID1A / RFU, ZNF146 / Fold change vs veh, ZNF146 / RFU, ZNF330 / Fold change vs veh, ZNF330 / RFU, GPN3 / Fold change vs veh, GPN3 / RFU, C9orf123 / Fold change vs veh, C9orf123 / RFU, N4BP2L2 / Fold change vs veh, N4BP2L2 / RFU, ARFIP1 / Fold change vs veh, ARFIP1 / RFU, FAM179B / Fold change vs veh, FAM179B / RFU, BCL10 / Fold change vs veh, BCL10 / RFU, UHRF1BP1L / Fold change vs veh, UHRF1BP1L / RFU, BET1 / Fold change vs veh, BET1 / RFU, CNOT2 / Fold change vs veh, CNOT2 / RFU, ZNF268 / Fold change vs veh, ZNF268 / Fold change vs veh, ZNF507 / RFU, DGCR2 / Fold change vs veh, DGCR2 / RFU, WDSUB1 / Fold change vs veh, WDSUB1 / Fold change vs veh, HSP90B1 /// MIR3652 / RFU, ADSS / Fold change vs veh, ADSS / RFU, GK / Fold change vs veh, GK / RFU, ZNF148 / Fold change vs veh, ZNF148 / RFU, TAF9 / Fold change vs veh, TAF9 / RFU, SLC1A5 / Fold change vs veh, SLC1A5 / RFU, SLMO2 / Fold change vs veh, SLMO2 / RFU, ABCC4 / Fold change vs veh, ABCC4 / RFU, LOC101060439 /// RAP1B / Fold change vs veh, LOC101060439 /// RAP1B / RFU, RFX7 / Fold change vs veh, RFX7 / RFU, GTPBP10 / Fold change vs veh, GTPBP10 / RFU, CNEP1R1 / Fold change vs veh, CNEP1R1 / RFU, BIVM-ERCC5 /// ERCC5 / Fold change vs veh, BIVM-ERCC5 /// ERCC5 / RFU, ILF3 / Fold change vs veh, ILF3 / RFU 11762660_at / Fold change /veh 11762660_at / RFU VCAN (11757783_s_at) / Fold change /veh VCAN (11757783_s_at) / RFU DDX43 (11728927_at) / Fold change /veh DDX43 (11728927_at) / RFU KRT8 (11758188_x_at) / Fold change /veh KRT8 (11758188_x_at) / RFU NKD1 (11759106_at) / Fold change /veh NKD1 (11759106_at) / RFU SRD5A1 (11742802_a_at) / Fold change /veh SRD5A1 (11742802_a_at) / RFU TPSAB1 /// TPSB2 (11721975_s_at) / Fold change /veh TPSAB1 /// TPSB2 (11721975_s_at) / RFU GSTM3 (11746129_a_at) / Fold change /veh GSTM3 (11746129_a_at) / RFU IL23R (11737362_x_at) / Fold change /veh IL23R (11737362_x_at) / RFU TMEM51 (11727254_a_at) / Fold change /veh TMEM51 (11727254_a_at) / RFU PIWIL2 (11732686_x_at) / Fold change /veh PIWIL2 (11732686_x_at) / RFU ORM1 (11744905_x_at) / Fold change /veh ORM1 (11744905_x_at) / RFU CCDC152 (11743942_at) / Fold change /veh CCDC152 (11743942_at) / RFU ECM1 (11717891_a_at) / Fold change /veh ECM1 (11717891_a_at) / RFU IL23R (11748794_a_at) / Fold change /veh IL23R (11748794_a_at) / RFU TNFAIP8L3 (11732012_x_at) / Fold change /veh TNFAIP8L3 (11732012_x_at) / RFU MBOAT4 (11741988_at) / Fold change /veh MBOAT4 (11741988_at) / RFU 11764193_at / Fold change /veh 11764193_at / RFU TMEM53 (11763286_at) / Fold change /veh TMEM53 (11763286_at) / RFU MAGEB2 (11727129_at) / Fold change /veh MAGEB2 (11727129_at) / RFU TMEM200A (11744735_a_at) / Fold change /veh TMEM200A (11744735_a_at) / RFU CCDC152 (11751479_a_at) / Fold change /veh CCDC152 (11751479_a_at) / RFU FAM211A (11726209_a_at) / Fold change /veh FAM211A (11726209_a_at) / RFU RGS16 (11746705_a_at) / Fold change /veh RGS16 (11746705_a_at) / RFU VCAN (11755009_s_at) / Fold change /veh VCAN (11755009_s_at) / RFU RHOB (11743442_s_at) / Fold change /veh RHOB (11743442_s_at) / RFU RGS16 (11720943_a_at) / Fold change /veh RGS16 (11720943_a_at) / RFU RGS16 (11720944_at) / Fold change /veh RGS16 (11720944_at) / RFU, VPS4B / Fold change vs veh, VPS4B / RFU, CREB1 / Fold change vs veh, CREB1 / RFU, DNAJC13 / Fold change vs veh, DNAJC13 / RFU, GNAQ / Fold change vs veh, GNAQ / RFU, CDK5R1 / Fold change vs veh, CDK5R1 / RFU, ZRANB3 / Fold change vs veh, ZRANB3 / RFU, CUL4A / Fold change vs veh, CUL4A / RFU, CCNY / Fold change vs veh, CCNY / RFU, UFL1 / Fold change vs veh, UFL1 / RFU, COG3 / Fold change vs veh, COG3 / RFU, DIAPH2 / Fold change vs veh, DIAPH2 / RFU, SKA2 / Fold change vs veh, SKA2 / RFU, AFF3 / Fold change vs veh, AFF3 / RFU, LMF1 / Fold change vs veh, LMF1 / RFU, IPO11 / Fold change vs veh, IPO11 / RFU, DFFB / Fold change vs veh, DFFB / RFU, FOXP1 / Fold change vs veh, FOXP1 / RFU, CARD8 / Fold change vs veh, CARD8 / RFU, STRN3 / Fold change vs veh, STRN3 / RFU, ADK / Fold change vs veh, ADK / RFU, RASSF2 / Fold change vs veh, RASSF2 / RFU, WIPF1 / Fold change vs veh, WIPF1 / RFU, LARP1B / Fold change vs veh, LARP1B / RFU, RASA1 / Fold change vs veh, RASA1 / RFU, RB1 / Fold change vs veh, RB1 / RFU, PPFIA1 / Fold change vs veh, PPFIA1 / RFU, MAT2A / Fold change vs veh, MAT2A / RFU, CCT5 / Fold change vs veh, CCT5 / RFU, WDR92 / Fold change vs veh, WDR92 / RFU, CUX1 / Fold change vs veh, CUX1 / RFU, TTC7A / Fold change vs veh, TTC7A / RFU, TMEM135 / Fold change vs veh, TMEM135 / RFU, DEPTOR / Fold change vs veh, DEPTOR / RFU, CPM / Fold change vs veh, CPM / RFU, DNAJB6 / Fold change vs veh, DNAJB6 / RFU, CACNA2D3 / Fold change vs veh, CACNA2D3 / RFU, DTX4 / Fold change vs veh, DTX4 / RFU, TFCP2 / Fold change vs veh, TFCP2 / RFU, GMCL1 /// GMCL1P1 / Fold change vs veh, GMCL1 /// GMCL1P1 / RFU, AEBP2 / Fold change vs veh, AEBP2 / RFU, SNHG1 /// SNORD22 /// SNORD25 /// SNORD26 /// SNORD27 /// SNORD28 /// SNORD29 /// SNORD31 / Fold change vs veh, SNHG1 /// SNORD22 /// SNORD25 /// SNORD26 /// SNORD27 /// SNORD28 /// SNORD29 /// SNORD31 / Fold change (Aza/veh), C12orf56 (ProbeSet 11735607_a_at) / Fold change (ACY-1035/veh), C12orf56 (ProbeSet 11735607_a_at) / Fold change (Aza/veh), FGFR1OP (ProbeSet 11751329_s_at) / Fold change (ACY-1035/veh), FGFR1OP (ProbeSet 11751329_s_at) / Fold change (Aza/veh), VPS36 (ProbeSet 11739960_a_at) / Fold change (ACY-1035/veh), VPS36 (ProbeSet 11739960_a_at) / RFU SYPL1 (11715823_x_at) / Fold change /veh SYPL1 (11715823_x_at) / RFU IGFBP7 (11715501_s_at) / Fold change /veh IGFBP7 (11715501_s_at) / RFU REEP3 (11722064_at) / Fold change /veh REEP3 (11722064_at) / RFU IGLL1 (11728026_x_at) / Fold change /veh IGLL1 (11728026_x_at): dose or concentration left out as unconfirmed.

Consider one compound from PMC5218480 (PLoS ONE, 2017).

Regarding `Nc1ccc(-c2cccs2)cc1NC(=O)c1ccc2c(c1)cc(C1CC1)n2CCN1CCOCC1` [ACY-1035], the “RFU MAPK11 (11762145_a_at)” value stood at 21.16 RFU.
